In ChEMBL document CHEMBL3217594, “Structureactivity relationships of methyl-lysine reader antagonists” (Medchemcomm, 2012):
Calls of active or inactive are those of the source. No cut-off for these calls is given here.

Experiments:
[1] = molecular target: T1, Lethal(3)malignant brain tumor-like protein 4 (Homo sapiens) (UniProt Q8NA19); test: Antagonist activity at L3MBTL4 (unknown origin) assessed as inhibition of L3MBTL4/biotinylated H2AK36Me1 peptide interaction at 30 uM after 30 mins by AlphaScreen assay
T1 sequence (whole entry): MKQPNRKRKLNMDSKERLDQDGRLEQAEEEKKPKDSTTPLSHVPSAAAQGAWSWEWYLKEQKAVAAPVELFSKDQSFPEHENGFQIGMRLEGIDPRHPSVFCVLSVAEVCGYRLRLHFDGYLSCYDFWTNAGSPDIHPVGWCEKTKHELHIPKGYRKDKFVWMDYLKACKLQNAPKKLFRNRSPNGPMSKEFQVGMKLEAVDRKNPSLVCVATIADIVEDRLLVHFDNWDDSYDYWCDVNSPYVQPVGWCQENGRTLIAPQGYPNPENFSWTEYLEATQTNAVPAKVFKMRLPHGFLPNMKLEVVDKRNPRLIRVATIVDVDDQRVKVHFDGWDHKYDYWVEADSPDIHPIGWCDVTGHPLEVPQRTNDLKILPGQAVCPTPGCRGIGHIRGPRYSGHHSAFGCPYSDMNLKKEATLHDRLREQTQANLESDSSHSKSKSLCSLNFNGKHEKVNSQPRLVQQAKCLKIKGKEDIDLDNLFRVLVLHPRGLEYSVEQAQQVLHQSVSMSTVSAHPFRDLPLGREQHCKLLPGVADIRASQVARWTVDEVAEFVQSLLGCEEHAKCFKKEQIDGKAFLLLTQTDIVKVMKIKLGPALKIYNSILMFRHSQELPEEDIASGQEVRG

[2] = molecular target: T2, Lethal(3)malignant brain tumor-like protein 3 (Homo sapiens, UniProt Q96JM7); test: Antagonist activity at His-tagged L3MBTL3 (unknown origin) assessed as inhibition of L3MBTL3/biotinylated H4K20Me2 peptide interaction after 30 mins by AlphaScreen assay
T2 sequence (Q96JM7 whole entry): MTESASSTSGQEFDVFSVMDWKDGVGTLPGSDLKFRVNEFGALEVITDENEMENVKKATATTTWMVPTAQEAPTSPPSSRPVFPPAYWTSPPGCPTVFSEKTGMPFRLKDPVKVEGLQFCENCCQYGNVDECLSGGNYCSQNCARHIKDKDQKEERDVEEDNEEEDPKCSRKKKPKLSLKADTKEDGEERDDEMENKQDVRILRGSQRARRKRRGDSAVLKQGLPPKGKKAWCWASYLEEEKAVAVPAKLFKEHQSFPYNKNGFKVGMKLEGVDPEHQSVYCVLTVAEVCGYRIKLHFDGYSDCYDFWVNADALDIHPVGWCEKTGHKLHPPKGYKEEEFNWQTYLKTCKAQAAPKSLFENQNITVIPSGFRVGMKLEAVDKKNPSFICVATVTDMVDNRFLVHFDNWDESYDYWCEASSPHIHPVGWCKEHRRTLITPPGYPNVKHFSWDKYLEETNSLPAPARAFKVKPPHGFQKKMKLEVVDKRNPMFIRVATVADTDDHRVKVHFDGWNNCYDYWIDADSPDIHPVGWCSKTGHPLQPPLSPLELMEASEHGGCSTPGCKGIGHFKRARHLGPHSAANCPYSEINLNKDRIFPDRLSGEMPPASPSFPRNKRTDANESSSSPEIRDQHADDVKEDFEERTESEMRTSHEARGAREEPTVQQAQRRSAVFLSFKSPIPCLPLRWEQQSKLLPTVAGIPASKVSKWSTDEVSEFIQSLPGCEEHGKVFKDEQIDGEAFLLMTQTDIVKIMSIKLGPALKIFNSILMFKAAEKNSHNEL

[3] = molecular target: T3, Scm-like with four MBT domains protein 1 (Homo sapiens) (UniProt Q9UHJ3); test: Antagonist activity at SFMBT1 (unknown origin) assessed as inhibition of SFMBT1/biotinylated H3K9Me1 peptide interaction at 30 uM after 30 mins by AlphaScreen assay
T3 sequence (whole entry): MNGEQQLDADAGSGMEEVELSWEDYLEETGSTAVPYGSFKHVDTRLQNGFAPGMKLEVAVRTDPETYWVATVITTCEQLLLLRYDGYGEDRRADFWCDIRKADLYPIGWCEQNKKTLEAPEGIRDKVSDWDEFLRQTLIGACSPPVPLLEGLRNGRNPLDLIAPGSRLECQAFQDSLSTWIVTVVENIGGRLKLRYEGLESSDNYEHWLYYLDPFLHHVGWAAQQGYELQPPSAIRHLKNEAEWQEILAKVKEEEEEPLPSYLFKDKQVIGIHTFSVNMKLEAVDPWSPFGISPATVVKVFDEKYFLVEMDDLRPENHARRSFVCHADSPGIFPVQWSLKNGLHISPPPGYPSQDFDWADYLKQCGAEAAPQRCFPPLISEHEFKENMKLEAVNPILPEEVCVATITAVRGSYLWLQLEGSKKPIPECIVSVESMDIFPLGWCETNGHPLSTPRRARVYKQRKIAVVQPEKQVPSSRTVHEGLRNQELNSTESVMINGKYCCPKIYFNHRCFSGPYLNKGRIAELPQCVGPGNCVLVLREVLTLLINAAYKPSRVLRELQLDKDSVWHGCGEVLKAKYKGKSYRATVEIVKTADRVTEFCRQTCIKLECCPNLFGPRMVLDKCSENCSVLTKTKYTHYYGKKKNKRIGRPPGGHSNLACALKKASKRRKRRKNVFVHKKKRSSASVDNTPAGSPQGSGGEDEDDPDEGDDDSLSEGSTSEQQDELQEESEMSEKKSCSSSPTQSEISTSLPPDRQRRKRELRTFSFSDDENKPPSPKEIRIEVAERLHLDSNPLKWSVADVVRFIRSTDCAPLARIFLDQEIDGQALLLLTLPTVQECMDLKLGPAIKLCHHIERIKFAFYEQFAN

CN1CCCC1C1CCN(C(=O)c2cccc(Br)c2)CC1 (stereo not drawn)
inhibition [1]: inactive | IC50 [2]: 21 µM | inhibition [3]: inactive

CN(C)C1CCN(C(=O)c2cccc(Br)c2)CC1
inhibition [1]: inactive | IC50 [2]: > 30 µM | inhibition [3]: inactive

O=C(c1cccc(Br)c1)N1CCN(C2CCCC2)CC1
inhibition [1]: inactive | IC50 [2]: > 30 µM | inhibition [3]: inactive

CC1CCCN1C1CCN(C(=O)c2cccc(Br)c2)CC1 (stereo not drawn)
inhibition [1]: inactive | IC50 [2]: > 30 µM | inhibition [3]: inactive

CNC1CCN(C(=O)c2cccc(Br)c2)CC1
inhibition [1]: inactive | IC50 [2]: > 30 µM | inhibition [3]: inactive

O=C(c1cccc(Br)c1)N1CCC(N2CCCC2)C1 (stereo not drawn)
inhibition [1]: inactive | IC50 [2]: > 30 µM | inhibition [3]: inactive

O=S(=O)(c1cccc(Br)c1)N1CCC(N2CCCC2)CC1
inhibition [1]: 6% | IC50 [2]: 3.7 µM | inhibition [3]: inactive

O=C(c1cccc(Br)c1)N1CCC(N2CCCCC2)CC1
inhibition [1]: inactive | IC50 [2]: > 30 µM | inhibition [3]: inactive

CC(c1cccc(Br)c1)N1CCC(N2CCCC2)CC1 (racemic)
inhibition [1]: 13% | IC50 [2]: 16 µM | inhibition [3]: inactive

C[N+]1(C2CCN(C(=O)c3cccc(Br)c3)CC2)CCCC1
inhibition [1]: inactive | IC50 [2]: > 30 µM | inhibition [3]: inactive

O=C(c1cccc(Br)c1)N1CCC(N2CCC2)CC1
inhibition [1]: 4% | IC50 [2]: 23.8 µM | inhibition [3]: inactive

O=C(O)c1cccc(C(=O)N2CCC(N3CCCC3)CC2)c1
inhibition [1]: 26% | IC50 [2]: 6.9 µM | inhibition [3]: inactive

O=C(c1cccc(Br)c1)N1CCC(N2CCCC2)CC1
IC50 [2]: 3.2 µM | inhibition [3]: 12%

Brc1cccc(CN2CCC(N3CCCC3)CC2)c1
inhibition [1]: 10% | IC50 [2]: 13.3 µM | inhibition [3]: inactive

O=C(c1cccc(Br)c1)N1CCC(C2CCCN2)CC1 (stereo not drawn)
inhibition [1]: inactive | inhibition [3]: inactive
